Experimental data taken from ChEMBL document CHEMBL5352415, “Discovery of new macrophage M2 polarization modulators as multiple sclerosis treatment agents that enable the inflammation microenvironment remodeling” (Eur J Med Chem, 2022).
pIC50: −log10 of the molar value.

Columns and labels:
[1] = target: RAC-alpha serine/threonine-protein kinase (Homo sapiens, UniProt P31749); test: Inhibition of AKT1 (unknown origin); assay type: binding
[2] = Induction of M2 macrophage polarization in C57BL/6 mouse BMDM cells assessed as fold increase in Arg1 gene level at 1 uM incubated for 24 hrs by qRT-PCR analysis; assay type: functional
[3] = Induction of M2 macrophage polarization in C57BL/6 mouse BMDM cells assessed as fold increase in Ym1 gene level at 1 uM incubated for 24 hrs by qRT-PCR analysis; assay type: functional
[4] = Inhibition of M1 macrophage polarization in C57BL/6 mouse BMDM cells assessed as fold decrease in Inos gene level at 1 uM incubated for 24 hrs by qRT-PCR analysis (reference value: 1); assay type: functional
[5] = Inhibition of LPS-induced M1 macrophage polarization in C57BL/6 mouse BMDM cells assessed as fold decrease in Inos gene level at 1 uM preincubated with LPS for 24 hrs followed by compound addition and measured after 24 hrs by qRT-PCR analysis (reference value: 524.05 +/- 24.75); assay type: functional
[6] = target: RAC-beta serine/threonine-protein kinase (Homo sapiens, UniProt P31751); test: Inhibition of AKT2 (unknown origin); assay type: binding
[7] = target: T1, RAC-alpha serine/threonine-protein kinase (Mus musculus, UniProt P31750); test: Inhibition of LPS-induced Akt phosphorylation at Ser473 in C57BL/6 mouse BMDM cells at 50 to 500 nM incubated for 24 hrs by Western blot analysis; assay type: cell-based; details: 0.5 µM, dose 50-500 nM
[8] = target: T1, RAC-alpha serine/threonine-protein kinase; test: Inhibition of Akt phosphorylation at Ser473 in C57BL/6 mouse BMDM cells at 50 to 500 nM incubated for 24 hrs by Western blot analysis; assay type: cell-based; details: 0.5 µM, dose 50-500 nM

RAC-beta serine/threonine-protein kinase, sequence (P31751 whole entry): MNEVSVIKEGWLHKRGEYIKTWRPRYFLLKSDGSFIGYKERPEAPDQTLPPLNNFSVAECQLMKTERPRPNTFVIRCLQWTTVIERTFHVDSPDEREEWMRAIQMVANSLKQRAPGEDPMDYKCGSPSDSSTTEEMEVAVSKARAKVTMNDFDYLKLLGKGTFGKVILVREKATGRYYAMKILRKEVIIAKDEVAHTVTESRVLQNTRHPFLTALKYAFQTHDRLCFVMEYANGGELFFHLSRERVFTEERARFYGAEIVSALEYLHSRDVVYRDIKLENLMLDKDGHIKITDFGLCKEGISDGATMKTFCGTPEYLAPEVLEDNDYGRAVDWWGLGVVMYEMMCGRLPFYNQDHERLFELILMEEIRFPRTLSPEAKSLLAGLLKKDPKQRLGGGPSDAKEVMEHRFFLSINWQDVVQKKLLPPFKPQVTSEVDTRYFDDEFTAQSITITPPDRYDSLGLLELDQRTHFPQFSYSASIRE
RAC-alpha serine/threonine-protein kinase (Homo sapiens, UniProt P31749), sequence (P31749 whole entry): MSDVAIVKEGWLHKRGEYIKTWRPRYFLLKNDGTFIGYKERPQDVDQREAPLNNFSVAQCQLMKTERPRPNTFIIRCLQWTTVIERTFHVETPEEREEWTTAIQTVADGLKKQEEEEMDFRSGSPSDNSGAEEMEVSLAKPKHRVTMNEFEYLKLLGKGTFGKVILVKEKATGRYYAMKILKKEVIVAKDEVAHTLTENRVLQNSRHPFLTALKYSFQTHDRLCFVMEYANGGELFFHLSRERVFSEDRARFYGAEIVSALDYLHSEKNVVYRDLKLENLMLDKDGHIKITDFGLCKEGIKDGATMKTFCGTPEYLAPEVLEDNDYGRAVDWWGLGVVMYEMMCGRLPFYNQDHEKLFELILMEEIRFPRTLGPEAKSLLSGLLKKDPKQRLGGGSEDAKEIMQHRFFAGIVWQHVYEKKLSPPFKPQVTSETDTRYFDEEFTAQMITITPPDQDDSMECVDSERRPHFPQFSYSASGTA
T1 sequence (P31750 whole entry): as the sequence (P31749 whole entry) above, with S2N, A50S, T100A, K112R, E117T, K389T, G410N, H415D counted along it

Row | Compound | pIC50 [1] | fold change (FC) [2] | fold change (FC) [3] | fold change (FC) [4] | fold change (FC) [5] | pIC50 [6] | inhibition (INH) [7] | inhibition (INH) [8]
1 | Cl.O=C(N[C@@H]1CNCC[C@H]1c1ccc(F)c(F)c1)c1c(F)cc(-c2[nH]ncc2Br)cc1F | < 6.00 | 2.38 | 19.79 | – | – | – | – | –
2 | Cl.Cn1ncc(Cl)c1-c1ccc(C(=O)N[C@@H]2CNCC[C@H]2c2ccc(F)c(F)c2)cc1C1CC1 | 6.85 | 2.62 | 3.51 | – | – | – | – | –
3 | Cc1cc(C(=O)N[C@@H]2CNCC[C@H]2c2ccc(F)c(F)c2)ccc1-c1ccnn1C.Cl | 6.99 | 8.13 | 14.49 | 0.82 | 313.7 | – | – | –
4 | CCCc1cc(C(=O)N[C@@H]2CNCC[C@H]2c2ccc(F)c(F)c2)ccc1-c1c(Cl)cnn1C.Cl | 6.61 | 1.92 | 3.47 | – | – | – | – | –
5 | CCCc1cc(C(=O)N[C@@H]2CNCC[C@H]2c2ccc(F)c(F)c2)ccc1-c1c(Br)cnn1C.Cl | < 6.00 | 1.42 | 3.86 | – | – | < 6.00 | – | –
6 | CC(C)c1cc(C(=O)N[C@@H]2CNCC[C@H]2c2ccc(F)c(F)c2)ccc1-c1c(Cl)cnn1C.Cl | 7.16 | 2.77 | 5.03 | – | – | – | – | –
7 | Cc1cc(C(=O)N[C@@H]2CNCC[C@H]2c2ccc(F)c(F)c2)ccc1-c1c(Br)cnn1C.Cl | 6.47 | 2.62 | 4.87 | – | – | < 6.00 | – | –
8 | CC(C)c1cc(C(=O)N[C@@H]2CNCC[C@H]2c2ccc(F)c(F)c2)ccc1-c1c(Br)cnn1C.Cl | < 6.00 | 2.6 | 4.49 | – | – | < 6.00 | – | –
9 | Cl.Cn1nccc1-c1ccc(C(=O)N[C@@H]2CNCC[C@H]2c2ccc(F)c(F)c2)cc1C1CC1 | 6.80 | 3.31 | 1.38 | – | – | < 6.00 | – | –
10 | Cc1cc(C(=O)N[C@@H]2CNCC[C@H]2c2ccc(F)c(F)c2)ccc1-c1c(Cl)cnn1C.Cl | 6.52 | 1.55 | 12.2 | – | – | – | Not Active | Not Active
11 | Cn1ncc(Br)c1-c1ccc2c(c1)CN([C@@H]1CNCC[C@H]1c1ccc(F)c(F)c1)C2=O | 8.80 | 1.93 | 7.52 | – | – | 8.57 | – | –
12 | CCCc1cc(C(=O)N[C@@H]2CNCC[C@H]2c2ccc(F)c(F)c2)ccc1-c1ccnn1C.Cl | 7.04 | 1.43 | 3.84 | – | – | – | – | –
13 | Cl.O=C(N[C@@H]1CNCC[C@H]1c1ccc(F)c(F)c1)c1c(F)cc(-c2ccn[nH]2)cc1F | 7.55 | 1.72 | 8.14 | – | – | < 6.00 | – | –
14 | Cn1nccc1-c1ccc2c(c1)CN([C@@H]1CNCC[C@H]1c1ccc(F)c(F)c1)C2=O | 8.37 | 2.24 | 3.59 | – | – | – | – | –
15 | CC(C)c1cc(C(=O)N[C@@H]2CNCC[C@H]2c2ccc(F)c(F)c2)ccc1-c1ccnn1C.Cl | 6.26 | 2.06 | 2.06 | – | – | < 6.00 | – | –
16 | Cn1ncc(Cl)c1-c1ccc(C(=O)N[C@@H]2CNCC[C@H]2c2ccc(F)c(F)c2)cc1 | 8.30 | 2.41 | 8.63 | – | – | – | – | –
17 | Cl.O=C(N[C@@H]1CNCC[C@H]1c1ccc(F)c(F)c1)c1c(F)cc(-c2ccn[nH]2)cc1Cl | 7.16 | 1.39 | 1.94 | – | – | – | – | –
